# What was measured:
# [1] = test system: LNCaP tumor-transplanted mouse; test: Internal radioactivity distribution using LNCaP tumor-transplanted mouse; type: in vivo
# Experimental: (§1) The animal test was performed in compliance with the guidelines of Kyoto University Animal Experiment Committee. Male CB17/IcrJcl-Prkdc^scid mice were purchased from CLEA Japan, Inc. The animals were kept under 12 h/12 h, day/night cycle conditions and fed ad libitum with food and water. LNCaP cells (1.0×10^7 cells/mouse) or PC-3 cells (1.0×10^7 cells/mouse) were suspended in a mixture of PBS and Matrigel manufactured by Corning Life Sciences (1:1, 150 μL) and the suspension was subcutaneously transplanted to the right shoulder of mice under isoflurane anesthesia. Thereafter, the mice were kept for 40 to 60 days.
# LNCaP or PC-3 tumor-implanted mice were administered saline solutions (185 kBq, 100 μL) of [^111In]In-PSMA-DA1 or [^111In]In-PSMA-DB from the tail vein (n=3 each). Mice were euthanized 1, 4, 24, 48, 96, and 192 hours after administration. Thereafter, blood and each organ were recovered, and the mass and radioactivity of the organs were measured.
# The percentage (% ID) of the radioactivity amount to the administered radioactivity amount (injected dose) is shown as the value (% ID/g) divided by the blood mass or the organ mass (g).
# LNCaP tumor-implanted mice prepared by the same method as in Example 1-1 were administered a saline solution (241 kBq/100 μL) of [^111In]In-PtDA from the tail vein (n=3). Mice were euthanized 1, 24, and 48 hours after administration. Thereafter, blood and each organ were recovered, and the mass and radioactivity of the organs were measured.
# LNCaP tumor-implanted mice prepared by the same method as in Example 1-1 were administered a saline solution (259 kBq/100 μL each) of each of the radiolabeled compounds in Examples 3-1 to 3-3 or Comparative Examples 2-1 to 2-2 from the tail vein (n=2 to 3). Mice were euthanized 1, 4, 24, 48, 96, and 192 hours after administration. Thereafter, blood and each organ were recovered, and the mass and radioactivity of the organs were measured.
# as §1, with “LNCaP cells (4.3×10^6 cells/mouse) or” for “LNCaP cells (1.0×10^7 cells/mouse) or”, “PC-3 cells (3.3×10^6 cells/mouse) were” for “PC-3 cells (1.0×10^7 cells/mouse) were”, “shoulder of CB17/IcrJcl-Prkdc^scid mice under” for “shoulder of mice under”
# Mice were euthanized 1, 4, 24, 48, 96, and 192 hours after administration. Thereafter, blood and each organ were recovered, and the mass and radioactivity of the organs were measured.
# The results are shown in Table 12 (Mean value±standard deviation, n=3).
# LNCaP tumor = test: SPECT/CT using LNCaP tumor-transplanted mouse; type: in vivo; settings: 24 (and 48) hours after administration
# Experimental: (§2) LNCaP tumor-implanted mice prepared by the method described above were administered saline solutions (1.9 to 3.0 MBq, 150 μL) of [^111In]In-PSMA-DA1 or [^111In]In-PSMA-DB from the tail vein. SPECT/CT was performed 24 and 48 hours after administration with FX3300 pre-clinical imaging system, which is manufactured by Gamma Medica-Ideas. Imaging was performed using a pinhole collimator with a diameter of 1.0 mm at a rotation radius of 35 mm, a projection time of 70 seconds, and the number of projections of 32 times under isoflurane anesthesia. After SPECT, CT (Tube voltage: 60 kV, Tube current: 350 μA) was performed. Image reconstruction was performed on the projection data of SPECT through three-dimensional ordered subset expectation maximization method (8 subsets, 5 iterations).
# In the figure, the part indicated by the arrow is the location of the tumor, and the part indicated by the circle is the location of the kidney. The higher the SUV, the higher the radioactivity accumulation. […]
# as §2, with “SPECT/CT” for “LNCaP tumor-implanted mice prepared by the method described above were administered saline solutions (1.9 to 3.0 MBq, 150 μL) of [^111In]In-PSMA-DA1 or [^111In]In-PSMA-DB from the tail vein. SPECT/CT”, “24, 48,” for “24”, “96” for “48”
structure (smiles),measurement,setting,value
O=C([O-])CN(Cc1cccc(C(=O)[O-])n1)C[C@H](Cc1ccc(NC(=O)[C@H](CCCCNC(=O)CCC(=O)NCCCC[C@H](NC(=O)N[C@@H](CCC(=O)O)C(=O)O)C(=O)O)NC(=O)CCCc2ccc(I)cc2)cc1)N(CC(=O)[O-])Cc1cccc(C(=O)[O-])n1.[111In+3] [[^111In]In-Octapa-2],Blood,[1]; 1 h after administration,14.4 ± 1.81 % ID/g
same,Brain,[1]; 1 h after administration,0.20 ± 0.03 % ID/g
same,Heart,[1]; 1 h after administration,3.98 ± 0.51 % ID/g
same,Intestine,[1]; 1 h after administration,1.55 ± 0.21 % ID/g
same,Kidney,[1]; 1 h after administration,121 ± 14.9 % ID/g
same,LNCaP Tumor,[1]; 1 h after administration,12.5 ± 0.26 % ID/g
same,Liver,[1]; 1 h after administration,2.75 ± 0.54 % ID/g
same,Lung,[1]; 1 h after administration,10.1 ± 1.34 % ID/g
same,Muscle,[1]; 1 h after administration,1.44 ± 0.24 % ID/g
same,Pancreas,[1]; 1 h after administration,1.73 ± 0.18 % ID/g
same,Spleen,[1]; 1 h after administration,18.5 ± 4.39 % ID/g
same,Stomach (% ID),[1]; 1 h after administration,0.51 ± 0.22 % ID
same,Blood,[1]; 4 h after administration,6.73 ± 1.63 % ID/g
same,Brain,[1]; 4 h after administration,0.14 ± 0.02 % ID/g
same,Heart,[1]; 4 h after administration,1.89 ± 0.49 % ID/g
same,Intestine,[1]; 4 h after administration,1.65 ± 0.37 % ID/g
same,Kidney,[1]; 4 h after administration,177 ± 35.7 % ID/g
same,LNCaP Tumor,[1]; 4 h after administration,13.7 ± 3.24 % ID/g
same,Liver,[1]; 4 h after administration,1.67 ± 0.47 % ID/g
same,Lung,[1]; 4 h after administration,5.02 ± 0.89 % ID/g
same,Muscle,[1]; 4 h after administration,0.63 ± 0.19 % ID/g
same,Pancreas,[1]; 4 h after administration,1.59 ± 0.94 % ID/g
same,Spleen,[1]; 4 h after administration,13.2 ± 2.66 % ID/g
same,Stomach (% ID),[1]; 4 h after administration,0.23 ± 0.02 % ID
same,Blood,[1]; 24 h after administration,0.84 ± 0.27 % ID/g
same,Brain,[1]; 24 h after administration,0.03 ± 0.01 % ID/g
same,Heart,[1]; 24 h after administration,0.33 ± 0.05 % ID/g
same,Intestine,[1]; 24 h after administration,0.82 ± 0.68 % ID/g
same,Kidney,[1]; 24 h after administration,55.3 ± 19.3 % ID/g
same,LNCaP Tumor,[1]; 24 h after administration,8.64 ± 2.27 % ID/g
same,Liver,[1]; 24 h after administration,0.33 ± 0.02 % ID/g
same,Lung,[1]; 24 h after administration,0.74 ± 0.12 % ID/g
same,Muscle,[1]; 24 h after administration,0.07 ± 0.02 % ID/g
same,Pancreas,[1]; 24 h after administration,0.19 ± 0.05 % ID/g
same,Spleen,[1]; 24 h after administration,1.97 ± 0.90 % ID/g
same,Stomach (% ID),[1]; 24 h after administration,0.21 ± 0.15 % ID
same,Blood,[1]; 48 h after administration,0.26 ± 0.23 % ID/g
same,Brain,[1]; 48 h after administration,0.02 ± 0.01 % ID/g
same,Heart,[1]; 48 h after administration,0.18 ± 0.12 % ID/g
same,Intestine,[1]; 48 h after administration,0.68 ± 0.32 % ID/g
same,Kidney,[1]; 48 h after administration,22.4 ± 14.5 % ID/g
same,LNCaP Tumor,[1]; 48 h after administration,8.10 ± 2.67 % ID/g
same,Liver,[1]; 48 h after administration,0.32 ± 0.10 % ID/g
same,Lung,[1]; 48 h after administration,0.45 ± 0.18 % ID/g
same,Muscle,[1]; 48 h after administration,0.04 ± 0.05 % ID/g
same,Pancreas,[1]; 48 h after administration,0.13 ± 0.06 % ID/g
same,Spleen,[1]; 48 h after administration,1.13 ± 0.70 % ID/g
same,Stomach (% ID),[1]; 48 h after administration,0.16 ± 0.14 % ID
same,Blood,[1]; 96 h after administration,0.01 ± 0.01 % ID/g
same,Brain,[1]; 96 h after administration,0.01 ± 0.00 % ID/g
same,Heart,[1]; 96 h after administration,0.07 ± 0.02 % ID/g
same,Intestine,[1]; 96 h after administration,0.45 ± 0.29 % ID/g
same,Kidney,[1]; 96 h after administration,3.27 ± 0.26 % ID/g
same,LNCaP Tumor,[1]; 96 h after administration,4.48 ± 0.78 % ID/g
same,Liver,[1]; 96 h after administration,0.22 ± 0.01 % ID/g
same,Lung,[1]; 96 h after administration,0.14 ± 0.08 % ID/g
same,Muscle,[1]; 96 h after administration,0.05 ± 0.02 % ID/g
same,Pancreas,[1]; 96 h after administration,0.06 ± 0.02 % ID/g
same,Spleen,[1]; 96 h after administration,0.61 ± 0.04 % ID/g
same,Stomach (% ID),[1]; 96 h after administration,0.04 ± 0.02 % ID
same,Blood,[1]; 192 h after administration,0.01 ± 0.01 % ID/g
same,Brain,[1]; 192 h after administration,0.01 ± 0.01 % ID/g
same,Heart,[1]; 192 h after administration,0.06 ± 0.02 % ID/g
same,Intestine,[1]; 192 h after administration,0.27 ± 0.18 % ID/g
same,Kidney,[1]; 192 h after administration,1.76 ± 0.70 % ID/g
same,LNCaP Tumor,[1]; 192 h after administration,1.76 ± 0.45 % ID/g
same,Liver,[1]; 192 h after administration,0.20 ± 0.05 % ID/g
same,Lung,[1]; 192 h after administration,0.07 ± 0.02 % ID/g
same,Muscle,[1]; 192 h after administration,0.01 ± 0.01 % ID/g
same,Pancreas,[1]; 192 h after administration,0.08 ± 0.02 % ID/g
same,Spleen,[1]; 192 h after administration,0.44 ± 0.12 % ID/g
same,Stomach (% ID),[1]; 192 h after administration,0.01 ± 0.01 % ID
same,radioactivity accumulation at the LNCaP tumor in SPECT/CT,LNCaP tumor,high radioactivity accumulation
same,radioactivity accumulation at the kidney in SPECT/CT,LNCaP tumor,also observed

# Source: US20240174622A1, “COMPOUND AND RADIOACTIVE LABELING COMPOUND” (NIHON MEDI-PHYSICS CO., LTD., priority 2021, published 2024)
